Measured values taken from publication PMC2680961, “Homologous desensitization of signalling by the alpha (α) isoform of the human thromboxane A2 receptor: A specific role for nitric oxide signalling” (Biochimica et Biophysica Acta, 2007).
Numbering of substitutions follows the chain as printed.

What was measured:
TPα^S329,331A = molecular target: T1, TPα^S329,331A (Homo sapiens, UniProt P21731, S329A/S331A); assay: [3H]SQ29,548 radioligand binding, Scatchard analysis, HEK.TPα^S329,331A
T1 construct: expressed in transfected cells
T1 sequence (P21731 1-343 S329A/S331A): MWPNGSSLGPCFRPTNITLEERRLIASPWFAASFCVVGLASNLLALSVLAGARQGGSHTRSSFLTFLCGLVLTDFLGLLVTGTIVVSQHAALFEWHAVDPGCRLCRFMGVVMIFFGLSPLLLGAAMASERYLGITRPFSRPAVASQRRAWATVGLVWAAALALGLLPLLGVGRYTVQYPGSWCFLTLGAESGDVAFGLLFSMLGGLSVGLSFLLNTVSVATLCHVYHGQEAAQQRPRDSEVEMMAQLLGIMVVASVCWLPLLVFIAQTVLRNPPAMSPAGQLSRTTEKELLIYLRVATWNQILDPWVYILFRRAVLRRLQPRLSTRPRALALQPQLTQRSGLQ
Procedure: Cells were harvested by centrifugation at 500×g at 4 °C for 5 min and washed three times with ice-cold Ca^2+/Mg^2+-free phosphate-buffered saline (PBS). TP radioligand binding assays were carried out at 30 °C for 30 min in 100 μl reactions in the presence of 0–40 nM [^3H] […] Protein determinations were carried out using the Bradford assay.
Radioligand binding and Scatchard analysis data were analysed using GraphPad Prisim V4.0 programme (GraphPad Software Inc., San Diego CA, USA). Statistical analyses were carried out using the unpaired Student's t test using the Statworks Analysis Package. p-values ≤ 0.01 indicated statistically significant differences.

TPα = molecular target: T2, TPα (Homo sapiens, UniProt P21731); assay: Intracellular calcium mobilization, HEK.TPα cells; format: cell-based; conditions: HEK.TPα
T2 construct: expressed in transfected cells
T2 sequence (P21731 1-343): T1 sequence (P21731 1-343 S329A/S331A) with A329S, A331S
Procedure: Measurement of intracellular calcium mobilization ([Ca^2+]i) in FURA2/AM preloaded HEK 293 cell lines (2 × 10^6 cells/dish), each transiently co-transfected with pADVA (10 μg), and pCMV:Gαq (25 μg), was carried out as previously described. To investigate the effect of GRK2/βARK1 on TP-mediated [Ca^2+]i mobilization, HEK.TPα or HEK.TPβ cells (2 × 10^6 cells/dish) were co-transfected with pADVA (10 μg), pCMV:Gαq (25 μg) along with pRK5:βARK1^495–689 (25 μg), encoding a dominant negative form of GRK2/βARK1[39]. Approximately 48 h post-transfection, cells were harvested by scraping, washed twice in ice-cold PBS and resuspended in HBSSHB (modified Ca^2+/Mg^2+-free Hank's buffered salt solution, containing […], pH 7.67, 0.1% bovine serum albumin (BSA)) buffer at 10^7 cells/ml and incubated in the dark with 5 μM FURA2/AM for 45 min at 37 °C. Cells were collected by centrifugation (900×g, 5 min), washed once in an equal volume of HBSSHB, and were finally resuspended in HBSSHB buffer at 10^7 cells/ml and kept at room temperature in the dark for 40 min. For each measurement of [Ca^2+]i mobilization, aliquots of cells were diluted to 0.825 × 10^6 cells/ml in HBSSHB, 1 mM CaCl2 and FURA2 fluorescence was recorded (2 ml aliquots of cells) at 37^ °C with gentle stirring with a Perkin Elmer-Cetus LS50-B spectrofluorometer at excitation wavelengths of 340 nm and 380 nm and emission wavelength of 510 nm, respectively.
[…] To assess agonist-mediated homologous desensitization, cells (0.825 × 10^6 cells/ml; 2 ml per assay) were stimulated with 1 μM U46619 (Primary stimulation) or, as a control, with the vehicle for 4 min; thereafter, cells were collected by centrifugation (900×g, 5 min); were washed twice in 2 ml HBSSHB, 1 mM CaCl2; and finally resuspended in 2 ml HBSSHB,1 mM CaCl2 and were left to recover over various time intervals (ranging from 0 to 60 min); thereafter, cells re-stimulated with 1 μM U46619 (Secondary stimulation) and changes in [Ca^2+]i mobilization were monitored as a function of time. To assess the role of protein kinase (PK) A, PKC or PKG on U46619-mediated desensitization of TPα signalling, cells were pre-incubated with the PKA inhibitor H-89 (10 μM), the PKC inhibitor GF 109203X (50 nM) or the PKG inhibitor KT 5823 (50 nM), for 15 min and respective kinase inhibitors were maintained throughout the primary/secondary U46619-stimulations and during the washes.
The vehicle had no effect on U46619-mediated [Ca^2+]i mobilization. Calibration of the signal was performed in each sample by adding 0.2% Triton X-100 to obtain the maximal fluorescence ratio (Rmax) and then 1 mM EGTA to obtain the minimal fluorescence ratio (Rmin). The ratio of the fluorescence at 340 nm to that at 380 nm is a measure of [Ca^2+]i, which assumes a Kd of 225 nM Ca^2+ for FURA2/AM. The results presented in the figures are representative data from at least three or four independent experiments and are plotted as changes in Ca^2+i mobilized (Δ[Ca^2+]i (nM)) as a function of time (s) upon ligand stimulation. Changes in [Ca^2+]i mobilization were determined by measuring peak rises in [Ca^2+]i mobilized (Δ[Ca^2+]i) and were calculated as mean changes in Δ[Ca^2+]i ± S.E.M. (nM).

| Structure (SMILES) | Bmax (pmol/mg protein ± S.E.M.) (TPα^S329,331A) | Δ[Ca2+]i, U46619-induced (TPα; + GRK^DN (βARK1^495–689), primary 1 μM U46619) | Δ[Ca2+]i, U46619-induced (TPα; + GRK^DN, secondary 1 μM U46619 at 15 min) | Δ[Ca2+]i, U46619-induced (TPα; primary stimulation, 1 μM U46619 4 min) | Δ[Ca2+]i, U46619-induced (TPα; secondary stimulation 1 μM U46619 at 15 min after primary, after washout) | Δ[Ca2+]i, U46619-induced (TPα; secondary stimulation 1 μM U46619 at 60 min after primary, after washout) | Δ[Ca2+]i, U46619-induced (TPα; vehicle as primary stimulation, washout, 1 μM U46619 at 60 min) | Δ[Ca2+]i, U46619-induced (TPα; − GRK^DN (pRK5 control), primary 1 μM U46619) | Δ[Ca2+]i, U46619-induced (TPα; − GRK^DN, secondary 1 μM U46619 at 15 min) |
| --- | --- | --- | --- | --- | --- | --- | --- | --- | --- |
| O=C(O)CCC/C=C\C[C@@H]1[C@H](CNNC(=O)Nc2ccccc2)[C@H]2CC[C@@H]1O2 [SQ29,548] | 2.9 ± 0.19 pmol/mg protein | – | – | – | – | – | – | – | – |
| CCCCC[C@H](O)/C=C/[C@@H]1[C@@H](C/C=C\CCCC(=O)O)[C@H]2CO[C@@H]1C2 [U46619] | – | 150 ± 7.5 nM | 0 nM | 174 ± 8.8 nM | 0 nM | 0 nM | 191.5 ± 25.5 nM | 165 ± 9 nM | 0 nM |
